The Aqueous solubility is the concentration that dissolves in the medium under given conditions. A word on the Solubility: it is the concentration that dissolves in the medium under given conditions. The low end stands for little dissolved substance, the high end for much dissolved substance.

Values after ≈ are worked out from the molar mass of the structure shown.

Consider two molecules from US20060127423A1, “Organic compounds” (priority 1998, published 2006).

For data set [1] the following is noted: previously reported; cited from earlier work.
A short description of data set [2]: Solubility of epothilone B in various solvent systems. It is filed as physicochemical. How it is done: If not indicated otherwise all solubility data refer to T=22° C.
Data set [3] in a line: Stability of PEG-containing infusion concentrates: degradation products by HPLC. It is filed as physicochemical. How it is done: The stability of aqueous versus nonaqueous polyethyleneglycol infusion concentrates comprising epothilone B at different concentration and various temperatures is determined. Typically, a known amount of epothilone B is dissolved in 1.0 ml of each of the various solvent systems and each solution is sterile filtered and charged to 1 ml white-glass vials with grey rubber stoppers and grey flip-off caps. The stability is analyzed by determining formation of degradation products in each of the infusion concentrates as a function of time and temperature. Each sample is analyzed by HPLC, the sample is prepared by diluting the concentrate with an aqueous medium.

Test in data set [4]: as above
The note with it: ethanol/water 59:41 (w/w), 5 mg/ml, 2-8° C. It is filed as physicochemical.

`C/C(=C\c1csc(C)n1)[C@@H]1C[C@@H]2O[C@@H]2CCC[C@H](C)[C@H](O)[C@@H](C)C(=O)C(C)(C)[C@@H](O)CC(=O)O1` [epothilone A]: the Aqueous solubility in data set [1] is 940 µg/mL.

Regarding `C/C(=C\c1csc(C)n1)[C@@H]1C[C@@H]2O[C@]2(C)CCC[C@H](C)[C@H](O)[C@@H](C)C(=O)C(C)(C)[C@@H](O)CC(=O)O1` [epothilone B], the Solubility in data set [2] (EtOH/H2O (v/v) 10/90, T=22° C.) was 1100 µg/mL (≈ 2170 µM); in data set [2] (EtOH/H2O (v/v) 20/80, T=22° C.), 1300 µg/mL (≈ 2560 µM); in data set [2] (EtOH/H2O (v/v) 30/70, T=22° C.) it was 4100 µg/mL (≈ 8080 µM); in data set [2] (EtOH/H2O (v/v) 50/50, T=22° C.), 27000 µg/mL (≈ 53200 µM); in data set [2] (EtOH/H2O (v/v) 100/0, T=22° C.), more than 50000 µg/mL; in data set [2] (H2O (pH 6.0), 4° C.) it was 190 µg/mL (≈ 374 µM). Besides, the Solubility came to 160 µg/mL (≈ 315 µM) in data set [2] (H2O (pH 6.0), T=22° C.); 160 µg/mL (≈ 315 µM) in data set [2] (H2O, 0.9% glucose, T=22° C.); 160 µg/mL (≈ 315 µM) in data set [2] (H2O, 5% glucose, T=22° C.); 230 µg/mL (≈ 453 µM) in data set [2] (H2O, 5% poloxamer 188, T=22° C.); 190 µg/mL (≈ 374 µM) in data set [2] (H2O, 15% glycerin, T=22° C.); 900 µg/mL (≈ 1770 µM) in data set [2] (PEG 300/H2O (v/v) 30/70, T=22° C.). For the same molecule, the Solubility in data set [2] (PEG 300/H2O (v/v) 50/50, T=22° C.) is 10000 µg/mL (≈ 19700 µM); in data set [2] (PEG 300/H2O (v/v) 70/30, T=22° C.) it was 2500 µg/mL (≈ 4920 µM); in data set [2] (PEG 300/H2O (v/v) 100/0, T=22° C.) it was 12000 µg/mL (≈ 23600 µM); in data set [2] (PEG 400/H2O (v/v) 30/70, T=22° C.), 800 µg/mL (≈ 1580 µM); in data set [2] (PEG 400/H2O (v/v) 50/50, T=22° C.), 11000 µg/mL (≈ 21700 µM); in data set [2] (PEG 400/H2O (v/v) 70/30, T=22° C.), 2300 µg/mL (≈ 4530 µM). For the same molecule, the Solubility is 30000 µg/mL (≈ 59100 µM) in data set [2] (PEG 400/H2O (v/v) 100/0, T=22° C.); 190 µg/mL (≈ 374 µM) in data set [2] (Phosphate buffer pH 7.4, 4° C.); 160 µg/mL (≈ 315 µM) in data set [2] (Phosphate buffer pH 7.4, T=22° C.); 600 µg/mL (≈ 1180 µM) in data set [2] (Propylene glycol/H2O (v/v) 30/70, T=22° C.); 1600 µg/mL (≈ 3150 µM) in data set [2] (Propylene glycol/H2O (v/v) 50/50, T=22° C.); 10400 µg/mL (≈ 20500 µM) in data set [2] (Propylene glycol/H2O (v/v) 70/30, T=22° C.). In data set [2] (Propylene glycol/H2O (v/v) 100/0, T=22° C.), this molecule yielded a Solubility of 26000 µg/mL (≈ 51200 µM). For the same molecule, the “Solubility relative to water” value in data set [2] (PEG/water, propyleneglycol/water, or EtOH/water mixtures) is listed as “significantly higher solubility”. For the same molecule, the Solubility in water entry in data set [2] (water at neutral pH) is reported as “about 160 mg/l”. In addition, the “Proportion of degradation products” value in data set [3] (PEG 300, 1 mg/ml, 3 months, 2-8° C.) is given as less than 0.1; in data set [3] (PEG 300/water 90:10 (w/w), 15 mg/ml, 7 months, 2-8° C.), less than 0.1; in data set [3] (PEG 300/water 90:10 (w/w), 15 mg/ml, 7 months, 25° C.) it was 1.0; in data set [3] (PEG 400, 1 mg/ml, 3 months, 2-8° C.) it was less than 0.1; in data set [3] (PEG 400, 1 mg/ml, 3 months, 25° C.) it was 0.2; in data set [3] (PEG 400/water 90:10 (w/w), 1 mg/ml, 3 months, 2-8° C.), less than 0.1. Moreover, the “Proportion of degradation products” value is 0.4 in data set [3] (PEG 400/water 90:10 (w/w), 1 mg/ml, 3 months, 25° C.); 0.3 in data set [4] (1 month); 0.3 in data set [4] (5 months); less than 0.1 in data set [4] (initial).
